Results reported in patent US10526585B2 (priority 2015, dated 2020).

Type: biochemical
Settings: pH 7.5

| Compound | DON [ppm] |
| --- | --- |
| [Ca+2] [Ca^2+] | 1.98 ppm |
| [Cu+2] [Cu^2+] | 2.61 ppm |
| [Fe+2] [Fe^2+] | 2.17 ppm |
| N[C@@H](CCCCNC1=CC(=O)C(=O)C=C1C[C@H](N)C(=O)O)C(=O)O [LTQ, lysine tyrosylquinone] | 2.04 ppm |
| [Mg+2] [Mg^2+] | 1.90 ppm |
| [Mn+2] [Mn^2+] | 2.57 ppm |
| O=C(O)c1cc(C(=O)O)c2c(n1)C(=O)C(=O)c1cc(C(=O)O)[nH]c1-2 [PCC, pyrroloquinoline quinone] | 1.94 ppm |
| COS(=O)(=O)[O-].C[n+]1c2ccccc2nc2ccccc21 [PMS, phenazine methosulphate] | 1.95 ppm |
| [Zn+2] [Zn^2+] | 2.46 ppm |
| COC1=C(OC)C(=O)C(CC=C(C)C)=C(C)C1=O [coenzyme Q1] | 8.58 ppm |
| CN(C)c1ccc2nc3ccc(=[N+](C)C)cc-3sc2c1 [methylene blue] | 6.88 ppm |
| topaquinone [TPQ] | 2.41 ppm |
| tryptophan tryptophylquinone [TTQ] | 2.32 ppm |
